Reference: patent US6338963B1, “Use of carbon monoxide dependent guanylyl cyclase modifiers to stimulate neuritogenesis” (NeoTherapeutics, Inc., priority 1994, dated 2002)
Counter-ions that a name gives are not always drawn. Marks after values point to notes of the source that are not given here.

Experiments:
[1] = system: cultured neurons from rat cerebral cortex; test: NMDA-induced toxicity in cultured rat cortical neurons, astrocyte conditioned medium; format: cell-based
Procedure: In these experiments, cultured neurons were prepared from rat cerebral cortex. In these cultures the NMDA pulse (100 μM for 10 min) provoked about 80% neuronal death (measured by Trypan blue cell staining or LDH activity). Separately, cultured astrocytes were treated for 6 hours with AIT-082. Then, the medium containing the drug was replaced with fresh medium without the drug and the astrocyte cultures were maintained in this medium for the next 24 hours. This medium represented the CM and was added to neurons soon after the toxic pulse with NMDA. The addition of CM partly counteracted the toxic effects caused by NMDA, reducing the neuronal damage by about 50%. If the medium was boiled for 20 min at 100° C. prior to addition to NMDA-damaged neurons, it completely lost the protective activity. […] To verify whether the neuroprotection caused by AIT-082 was ascribable to the production of TGFβ2 or NGF, antibodies to TGFβ2 or to NGF (100 ng/ml) were added together with CM.
Conversely, when DPCPX (100 nm) was added to astrocyte cultures together with AIT-082, the neuroprotective effect of the resulting CM deriving from the culture of the astrocytes with AIT-082 was reduced by only 20%, as compared to the neuroprotective effect of CM derived from astrocytes exposed to AIT-082 alone (assumed as equal to 100%).

[2] = system: Swiss Webster mice; test: Win-shift T-maze memory test, Swiss Webster mice; format: in vivo; conditions: 90-second inter-trial interval, THA 1.25 mg/kg i.p.
Procedure: Male Swiss Webster mice six months (young adult) and eleven months (old) of age, obtained from the National Institute on Aging, were maintained in individual cages, on a […] light/dark cycle with continuous access to water. Food was limited so that the mice stabilized at 80% of free feeding weight. Mice were weighed and handled daily for one week. The win-shift model was run as described in the literature and consists of a T-maze in which the correct response alternates after each correct trial. The interval between trials is varied and allows for the determination of the longest period between trials that a subject can remember the correct response on the previous trial. This allows the measure of the duration of the memory trace. […] The reward goal box is alternated after each correct trial. Ten trials per mouse are run each day. […] The latency time to leave the start box is recorded as a measure of motivation, the running time (the time from leaving the start box to reaching the goal box) is recorded as a measure of performance, and the number of correct responses as a measure of memory.
(§1) The drugs used in this example are 4-((3-(1,6-dihydro-6-oxo-9-purin-9-yl)-1-oxopropyl)amino) benzoic acid (AIT-082), as an exemplary potassium salt, tacrine hydrochloride (tetrahydroaminoacridine, THA, Sigma Chemical Co., St. Louis, Mo.), and physostigmine, hemisulfate salt (PHY, Sigma Chemical Co., St. Louis, Mo.). The drugs were dissolved in saline and prepared fresh daily. All injections were made at a volume of 0.1 ml/10 grams body weight. When testing drug effects, intraperitoneal (i.p.) injections of AIT-082 or THA were made one hour prior to the start of testing. Due to its shorter duration of action, PHY was injected 30 minutes prior to testing. Control subjects receive a similar injection of saline (vehicle).
To determine the duration of the memory trace, subjects were administered drug or saline and 30 minutes (PHY) or 1 hour (AIT-082 or THA) later they were given a single reference run with the milk reward in both goal boxes. After the indicated inter-trial delay, subjects were returned to the start box and given the first test trial with the milk reward only in the goal box opposite to the one entered on the previous correct trial. The subjects were given 10 trials with the reward alternating only after correct responses.
To determine if tolerance to the biological effects of AIT-082 developed, drug or saline was administered daily for 18 days prior to the testing in the standard win-shift paradigm.

[3] = system: Swiss Webster mice; test: Locomotor activity (spontaneous movements), Swiss Webster mice; format: in vivo; conditions: THA 1.25 mg/kg
Procedure: The activity of AIT-082 was compared with tacrine (THA) and physostigmine (PHY), experimental anticholinesterase agents which enhance memory in animals. The drugs were also evaluated for their effects on locomotor activity. In the win-shift memory paradigm, AIT-082 was evaluated for its ability to induce tolerance after 18 days of drug administration. In addition AIT-082 was tested for its activity to modify learning in a modified T-maze discrimination task.
as §1

[4] = system: cultured rat hippocampal neurons; test: NMDA-induced toxicity in cultured rat hippocampal neurons, astrocyte conditioned medium; conditions: NMDA 100 μM pulse of 10 min.
Procedure: To determine whether or not AIT-082 afforded in vitro neuroprotection, the effect of AIT-082 on toxicity induced by N-methyl-D-aspartate (NMDA) in cultured rat hippocampal neurons was studied.
To determine whether AIT-082 protected against neuronal toxicity induced by NMDA, and whether astrocytes might be involved, cultured astrocytes were exposed to AIT-082 for 6 hr. The drug was then removed and cultures were kept in fresh medium for the following 20 hr. This conditioned medium was then added to primary cultures of rat hippocampal neurons on the seventh day in vitro, immediately after they had been exposed to a toxic pulse of NMDA.
It was next evaluated whether the addition of conditioned medium (CM) deriving from astrocyte cultures treated with 100 μM AIT-082 generated protection against damage induced by a toxic pulse with 100 μM NMDA in cultured neurons.
The effects of NMDA are shown in FIG. 66A on cortical cells and in FIG. 66B for hippocampal cells.

[5] = system: rat caudate nuclei; test: GAD activity in rat caudate nuclei damaged by NMDA; format: in vivo; conditions: NMDA 25-300 nmoles infused unilaterally, maximal lesion, 8 to 10 days
Procedure: The effect of AIT-082 on in vivo neuroprotection was also assessed by assaying for glutamic acid decarboxylase (GAD) activity.
GAD activity in rat caudate nuclei was damaged in vivo by NMDA. Increasing amounts of NMDA (25-300 nmoles) were unilaterally infused into caudate nuclei of rats. Eight to 10 days after the injections, glutarnic acid decarboxylase (GAD) activity was assayed, as an index of the loss of GABA-ergic neurons. NMDA produced a dose-dependent lesion, which at its maximal extension caused a reduction of GAD activity by 50% in comparison with that of contralateral sham-operated nuclei (control). […] The necrotic areas are in white, whereas the shadow is the surrounding edema GAD activity was evaluated by measuring the ex novo formation of [^3H]GABA from dissected striata exposed to 1 μCi of [^3H]glutamate for 1 hour at 37° C. GABA was assayed by HPLC with fluorescence detection and the [3H]label associated with GABA was measured.

[6] = system: NGF; test: NGF release from rat cultured astrocytes (ELISA); format: cell-based
Procedure: The dose response for AIT-082 and guanosine on nerve growth factor and S100β protein release from rat culture astrocytes is shown in FIG. 30. NGF was assayed by a double-site ELISA, using a monoclonal anti-NGF antibody, coupled or not to β-galactosidase according to the method of I. D. Laviada et al., “Phosphatidylcholine-Phospholipase C Mediates the Induction of Nerve Growth Factor in Cultured Glial Cells,” FEBS Lett. 364: 301-304 (1995).
(§2) The NGF and S100β protein were measured by removing the cultured medium for the ELISA assays at each indicated time point.
(§3) NGF and TGFβ2 levels were assayed in the culture medium of the astrocytes by specific ELISA assays using kits from Roche (Germany) and Promega (USA) respectively. NGF basal levels were 56.3±3.2 pg/ml. TGFβ2 levels were 9.1±0.06 pg/ml.
(§4) In FIG. 61, the dose-response curves of NGF and TGFβ2 release from rat cultured astrocytes as the result of exposure to AIT-082 are shown.

[7] = system: S100β protein; test: S100β protein release from rat cultured astrocytes (ELISA); format: cell-based; conditions: cycloheximide 0.5 μg/ml, AIT-082 100 μ
Procedure: The S100β protein was measured by using an ELISA as described in A. Aurell et al., “The S-100 Protein in Cerebrospinal Fluid: A Simple ELISA Method,” J.Neurol. Sci. 89: 157-164 (1989).
as §2

[8] = system: TGFβ2; test: TGFβ2 release from rat cultured astrocytes (ELISA); format: cell-based; conditions: 100 nm wortmannin, 10 μM PD098,059 or 500 ng/ml CHX added 30 min before and kept 24 hours with 100 μM AIT-082
Procedure: as §3, §4

`CCCn1c(=O)c2[nH]c(C3CCCC3)nc2n(CCC)c1=O` [DPCPX, 8-cyclopentyl-1,3-dipropylxanthine] was tested, and the “reduction of neuroprotective effect of resulting CM” value ([1]; DPCPX 100 nm added to astrocyte cultures together with AIT-082) was 20% and the “effect on neuroprotective effect of astrocyte-derived CM” value ([1]; DPCPX 100 nm added with CM to injured cortical neurons) was “did not modify the neuroprotective effect”.
With `Nc1c2c(nc3ccccc13)CCCC2` [THA, tacrine hydrochloride, reference compound] the “Win-shift Memory Test, Correct responses” value [2] was 7.1* Correct responses/10 trials and the “Locomotor Activity” value [3] was 671* Spontaneous movements per hour.
In the case of `CN[C@H](CC(=O)O)C(=O)O` [NMDA, N-methyl-D-aspartate], the “death of the cultured neurons” value [4] is reported as roughly 75%, the “Count of Dead Cells (Trypan Blue Staining)” value ([4]; within 24 hours) is reported as 401.4 ± 27.3 and the LDH ([4]; within 24 hours) is reported as 262.8 ± 13.4 mOD/min. For the same compound, the neuronal death ([1]; NMDA pulse 100 μM for 10 min, Trypan blue or LDH) was “about 80%” and the “reduction of GAD activity versus contralateral sham-operated nuclei” value [5] was 50%.
With `C[C@@H]1C[C@@H]([C@H](O)CC2CC(=O)NC(=O)C2)C(=O)[C@@H](C)C1` [cycloheximide, reference compound] the “effect of inhibitor on AIT-082-induced accumulation of NGF” value ([6]; 100 nm wortmannin, 10 μM PD098,059 or 500 ng/ml CHX added 30 min before and kept 24 hours with 100 μM AIT-082) was “partly inhibited”, the “effect of cycloheximide on AIT-082-evoked release of NGF” value ([6]; cycloheximide 0.5 μg/ml, AIT-082 100 μ) was “abolished the stimulatory effect of AIT-082” and the “effect of cycloheximide on AIT-082-evoked accumulation of S100β protein” value [7] was “only slightly modified”. For the same compound, the “effect of inhibitor on AIT-082-induced accumulation of TGFβ2” value [8] was “partly inhibited”.
